In PubChem BioAssay AID1963972 (Molecular Pharmacology Branch, DTP, NCI, 2024):

Tested on: 945468-187-T-J2-PDC spheroids viability
Experiment: Anticancer human tumor 945468-187-T-J2-PDC patient-derived rectal carcinoma cell line growth inhibition [PI3K]
Conditions: spheroids with HUVEC and MSC; for IC50: curve of first compound; for viability, T/C: stronger effect = lower value
How it was run: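 Stroma-containing spheroids: tumor line, pooled-donor HUVEC, hMSC. Treatments: targeted agents with PI3K inhibitors. Dosing: clinically relevant, half-log spacing, 10 microM ceiling without known Cmax. Read-out: cell viability.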

[1] = second compound 0.0316 µM, first compound 0.0316 µM
[2] = second compound 0.0316 µM, first compound 0.1 µM
[3] = second compound 0.0316 µM, first compound 0.316 µM
[4] = second compound 0.0316 µM, first compound 1 µM
[5] = second compound 0.0316 µM, first compound 3.16 µM
[6] = second compound 0.0316 µM, first compound 10 µM
[7] = second compound 0.1 µM, first compound 0.0316 µM
[8] = second compound 0.1 µM, first compound 0.1 µM
[9] = second compound 0.1 µM, first compound 0.316 µM
[10] = second compound 0.1 µM, first compound 1 µM
[11] = second compound 0.1 µM, first compound 3.16 µM
[12] = second compound 0.1 µM, first compound 10 µM
[13] = second compound 0.316 µM, first compound 0.0316 µM
[14] = second compound 0.316 µM, first compound 0.1 µM
[15] = second compound 0.316 µM, first compound 0.316 µM
[16] = second compound 0.316 µM, first compound 1 µM
[17] = second compound 0.316 µM, first compound 3.16 µM
[18] = second compound 0.316 µM, first compound 10 µM
[19] = second compound 1 µM, first compound 0.0316 µM
[20] = second compound 1 µM, first compound 0.1 µM
[21] = second compound 1 µM, first compound 0.316 µM
[22] = second compound 1 µM, first compound 1 µM
[23] = second compound 1 µM, first compound 3.16 µM
[24] = second compound 1 µM, first compound 10 µM
[25] = second compound 3.16 µM, first compound 0.0316 µM
[26] = second compound 3.16 µM, first compound 0.1 µM
[27] = second compound 3.16 µM, first compound 0.316 µM
[28] = second compound 3.16 µM, first compound 1 µM
[29] = second compound 3.16 µM, first compound 3.16 µM
[30] = second compound 3.16 µM, first compound 10 µM
[31] = second compound 10 µM, first compound 0.0316 µM
[32] = second compound 10 µM, first compound 0.1 µM
[33] = second compound 10 µM, first compound 0.316 µM
[34] = second compound 10 µM, first compound 1 µM
[35] = second compound 10 µM, first compound 3.16 µM
[36] = second compound 10 µM, first compound 10 µM
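Also: spheroids exposed to compounds for seven days before reading.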

CC1(C)CCC(CN2CCN(c3ccc(C(=O)NS(=O)(=O)c4ccc(NCC5CCOCC5)c([N+](=O)[O-])c4)c(Oc4cnc5[nH]ccc5c4)c3)CC2)=C(c2ccc(Cl)cc2)C1 + Cc1nc(NC(=O)N2CCCC2C(N)=O)sc1-c1ccnc(C(C)(C)C(F)(F)F)c1
IC50 (second compound 0.0316 µM): > 10000 nM | IC50 (second compound 0.1 µM): > 10000 nM | IC50 (second compound 0.316 µM): > 10000 nM | IC50 (second compound 1 µM): > 10000 nM | IC50 (second compound 3.16 µM): > 10000 nM | IC50 (second compound 10 µM): > 10000 nM | viability, T/C [1]: 101% | viability, T/C [2]: 99.6% | viability, T/C [3]: 121% | viability, T/C [4]: 103% | viability, T/C [5]: 98.7% | viability, T/C [6]: 61.4% | viability, T/C [7]: 118% | viability, T/C [8]: 97.5% | viability, T/C [9]: 116% | viability, T/C [10]: 99.5% | viability, T/C [11]: 110% | viability, T/C [12]: 66.2% | viability, T/C [13]: 113% | viability, T/C [14]: 83.7% | viability, T/C [15]: 108% | viability, T/C [16]: 91.7% | viability, T/C [17]: 80.2% | viability, T/C [18]: 66.6% | viability, T/C [19]: 102% | viability, T/C [20]: 102% | viability, T/C [21]: 82.3% | viability, T/C [22]: 102% | viability, T/C [23]: 100% | viability, T/C [24]: 71.5% | viability, T/C [25]: 81.4% | viability, T/C [26]: 91% | viability, T/C [27]: 72.6% | viability, T/C [28]: 81.2% | viability, T/C [29]: 93.8% | viability, T/C [30]: 59% | viability, T/C [31]: 83.3% | viability, T/C [32]: 76.8% | viability, T/C [33]: 69.8% | viability, T/C [34]: 71.5% | viability, T/C [35]: 75.5% | viability, T/C [36]: 63.7%

CC(C)n1nc(-c2ccc3oc(N)nc3c2)c2c(N)ncnc21 + CC(Nc1ncnc2nc[nH]c12)c1cc2cccc(Cl)c2c(=O)n1-c1ccccc1
IC50 (second compound 0.0316 µM): > 100 nM | IC50 (second compound 0.1 µM): > 100 nM | IC50 (second compound 0.316 µM): > 100 nM | IC50 (second compound 1 µM): > 100 nM | IC50 (second compound 3.16 µM): > 100 nM | IC50 (second compound 10 µM): > 100 nM | viability, T/C (second compound 0.0316 µM, first compound 0.000316 µM): 93.8% | viability, T/C (second compound 0.0316 µM, first compound 0.001 µM): 87.3% | viability, T/C (second compound 0.0316 µM, first compound 0.00316 µM): 96.4% | viability, T/C (second compound 0.0316 µM, first compound 0.01 µM): 107% | viability, T/C [1]: 117% | viability, T/C [2]: 62.8% | viability, T/C (second compound 0.1 µM, first compound 0.000316 µM): 96.2% | viability, T/C (second compound 0.1 µM, first compound 0.001 µM): 94.3% | viability, T/C (second compound 0.1 µM, first compound 0.00316 µM): 99.4% | viability, T/C (second compound 0.1 µM, first compound 0.01 µM): 84.2% | viability, T/C [7]: 115% | viability, T/C [8]: 73.5% | viability, T/C (second compound 0.316 µM, first compound 0.000316 µM): 97.1% | viability, T/C (second compound 0.316 µM, first compound 0.001 µM): 89% | viability, T/C (second compound 0.316 µM, first compound 0.00316 µM): 94.7% | viability, T/C (second compound 0.316 µM, first compound 0.01 µM): 134% | viability, T/C [13]: 96.1% | viability, T/C [14]: 71% | viability, T/C (second compound 1 µM, first compound 0.000316 µM): 87.6% | viability, T/C (second compound 1 µM, first compound 0.001 µM): 136% | viability, T/C (second compound 1 µM, first compound 0.00316 µM): 95.8% | viability, T/C (second compound 1 µM, first compound 0.01 µM): 93.2% | viability, T/C [19]: 78.2% | viability, T/C [20]: 55% | viability, T/C (second compound 3.16 µM, first compound 0.000316 µM): 85.5% | viability, T/C (second compound 3.16 µM, first compound 0.001 µM): 107% | viability, T/C (second compound 3.16 µM, first compound 0.00316 µM): 90.3% | viability, T/C (second compound 3.16 µM, first compound 0.01 µM): 106% | viability, T/C [25]: 92.9% | viability, T/C [26]: 62.3% | viability, T/C (second compound 10 µM, first compound 0.000316 µM): 109% | viability, T/C (second compound 10 µM, first compound 0.001 µM): 84.5% | viability, T/C (second compound 10 µM, first compound 0.00316 µM): 108% | viability, T/C (second compound 10 µM, first compound 0.01 µM): 88.4% | viability, T/C [31]: 78.2% | viability, T/C [32]: 82.8%

CC1(C)CCC(Nc2ncc(C(F)(F)F)c(-c3c[nH]c4c(P(C)(C)=O)c(C#N)ccc34)n2)CN1 (stereo unspecified) + CC(Nc1ncnc2nc[nH]c12)c1cc2cccc(Cl)c2c(=O)n1-c1ccccc1
IC50 (second compound 0.0316 µM): 667 nM | IC50 (second compound 0.1 µM): 605 nM | IC50 (second compound 0.316 µM): 736 nM | IC50 (second compound 1 µM): 685 nM | IC50 (second compound 3.16 µM): 665 nM | IC50 (second compound 10 µM): 548 nM | viability, T/C [1]: 91.5% | viability, T/C [2]: 95.5% | viability, T/C [3]: 77.8% | viability, T/C [4]: 35% | viability, T/C [5]: 30.3% | viability, T/C [6]: 29.3% | viability, T/C [7]: 95.6% | viability, T/C [8]: 92.4% | viability, T/C [9]: 66.3% | viability, T/C [10]: 37.2% | viability, T/C [11]: 33.9% | viability, T/C [12]: 30.5% | viability, T/C [13]: 89.7% | viability, T/C [14]: 86.9% | viability, T/C [15]: 63.7% | viability, T/C [16]: 44.8% | viability, T/C [17]: 35.1% | viability, T/C [18]: 28.1% | viability, T/C [19]: 104% | viability, T/C [20]: 81.5% | viability, T/C [21]: 56.9% | viability, T/C [22]: 40.7% | viability, T/C [23]: 46.3% | viability, T/C [24]: 25.6% | viability, T/C [25]: 92.4% | viability, T/C [26]: 82.4% | viability, T/C [27]: 69.2% | viability, T/C [28]: 38.5% | viability, T/C [29]: 34.9% | viability, T/C [30]: 32.4% | viability, T/C [31]: 125% | viability, T/C [32]: 76.3% | viability, T/C [33]: 60.4% | viability, T/C [34]: 42.8% | viability, T/C [35]: 39% | viability, T/C [36]: 21.5%
